# Reference: the supplement of paper PMC10307832
# Key:
# Assay in all cases: relative viability (nuclei count vs DMSO), 5 days (fraction); higher = more cells survive
# Trametinib + Tozasertib = compound: CC(=O)Nc1cccc(-n2c(=O)n(C3CC3)c(=O)c3c(Nc4ccc(I)cc4F)n(C)c(=O)c(C)c32)c1 [Trametinib] + Cc1cc(Nc2cc(N3CCN(C)CC3)nc(Sc3ccc(NC(=O)C4CC4)cc3)n2)n[nH]1 [Tozasertib] (partner 0.1 µM)
# How it was run: (§1)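 For relative viability, nuclei counts in treated wells were divided by those in vehicle wells. Lung cancer cell lines had been pin-tool dosed in 1536-well plates the day after seeding and cultured for 5 days, then fixed and stained in one step (final 0.05% Triton X-100, 1% formaldehyde, 1 ug/ml Hoechst) and imaged at 4×. Doses were one drug alone or a fixed anchor-drug dose plus five library-drug doses (not always all listed) in √10 steps, and values are duplicate-plate medians.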
# Trametinib + Olaparib = compound: CC(=O)Nc1cccc(-n2c(=O)n(C3CC3)c(=O)c3c(Nc4ccc(I)cc4F)n(C)c(=O)c(C)c32)c1 [Trametinib] + O=C(c1cc(Cc2n[nH]c(=O)c3ccccc23)ccc1F)N1CCN(C(=O)C2CC2)CC1 [Olaparib] (partner 8 µM)
# How it was run: as §1
# [1] = compound: CN1C=C(C2=CC=CC=C21)/C=C\3/C4=C(C=CC=N4)NC3=O + CCNC(=O)c1noc(-c2cc(C(C)C)c(O)cc2O)c1-c1ccc(CN2CCOCC2)cc1 [Luminespib] (partner 0.01 µM)
# How it was run: as §1
# [2] = compound: CN1C=C(C2=CC=CC=C21)/C=C\3/C4=C(C=CC=N4)NC3=O + Cc1nc(Nc2ncc(C(=O)Nc3c(C)cccc3Cl)s2)cc(N2CCN(CCO)CC2)n1 [Dasatinib] (partner 0.075 µM)
# How it was run: as §1
Cell Line,relative viability (Trametinib + Tozasertib; first compound 0.0025 µM),relative viability (Trametinib + Tozasertib; first compound 0.007906 µM),relative viability (Trametinib + Tozasertib; first compound 0.025 µM),relative viability (Trametinib + Tozasertib; first compound 0.07906 µM),relative viability (Trametinib + Tozasertib; first compound 0.25 µM),relative viability (Trametinib + Olaparib; first compound 0.0025 µM),relative viability (Trametinib + Olaparib; first compound 0.007906 µM),relative viability (Trametinib + Olaparib; first compound 0.025 µM),relative viability (Trametinib + Olaparib; first compound 0.07906 µM),relative viability (Trametinib + Olaparib; first compound 0.25 µM),relative viability ([1]; first compound 0.02 µM),relative viability ([1]; first compound 0.06325 µM),relative viability ([1]; first compound 0.2 µM),relative viability ([1]; first compound 0.6325 µM),relative viability ([1]; first compound 2 µM),relative viability ([2]; first compound 0.02 µM),relative viability ([2]; first compound 0.06325 µM),relative viability ([2]; first compound 0.2 µM),relative viability ([2]; first compound 0.6325 µM),relative viability ([2]; first compound 2 µM)
NCI-H520,0.388,0.46,0.473,0.469,0.362,0.353,0.317,0.355,0.306,0.302,0.204,0.24,0.217,0.211,0.229,0.206,0.213,0.199,0.182,0.221
NCI-H2405,0.695,0.687,0.664,0.497,0.468,0.859,0.799,0.83,–,0.53,0.809,0.603,0.629,0.738,0.74,0.253,0.22,0.205,0.196,0.241
LCLC-97TM1,0.202,0.29,0.225,0.143,0.19,0.304,0.41,0.254,0.188,0.0956,0.669,0.611,0.82,0.809,0.944,0.529,0.76,0.876,0.968,0.882
NCI-H727,0.353,0.337,0.287,0.231,0.279,0.714,0.617,0.565,0.363,0.398,0.365,0.329,0.394,0.4,0.271,0.332,0.372,0.365,0.332,1.12
NCI-H522,0.583,0.529,0.455,0.526,0.446,0.617,0.485,0.583,0.555,0.545,1.32,0.937,1.02,1.18,1.12,0.896,0.803,0.844,0.784,0.874
NCI-H2228,0.239,0.209,0.207,0.211,0.132,0.691,0.541,0.641,0.422,0.224,0.214,0.0886,–,–,0.132,0.524,0.458,–,–,0.485
LK-2,0.183,0.17,0.186,0.217,0.184,0.654,0.619,0.81,0.51,0.293,–,–,–,0.189,0.186,–,–,–,0.266,0.256
PC-3 [JPC-3],0.864,0.742,0.795,0.629,0.563,1.12,0.927,0.982,–,0.699,0.628,0.595,0.647,0.682,0.839,1.04,0.888,1.02,0.866,1.02
NCI-H596,0.867,0.733,0.602,0.784,0.464,0.664,0.594,0.589,0.516,0.463,1,1.01,0.858,0.93,0.866,0.481,0.582,0.469,0.628,0.48
NCI-H460,0.267,0.262,0.278,0.152,0.0343,0.43,0.265,0.313,0.217,0.0898,0.0416,0.0387,0.0352,0.0268,0.0415,0.648,0.448,0.388,0.44,0.459
NCI-H647,0.188,0.216,0.261,0.216,0.136,0.481,0.362,0.491,0.452,0.218,0.177,0.124,0.192,0.128,0.324,0.208,0.176,0.105,0.143,0.167
NCI-H838,0.275,0.24,0.225,0.217,0.22,0.703,0.675,0.622,0.674,0.587,0.314,0.336,0.345,0.269,0.325,0.146,0.277,0.242,0.27,0.261
PC-14,0.508,0.527,0.46,0.364,0.156,0.282,0.225,0.216,0.222,0.106,0.212,0.138,–,0.173,0.135,0.227,0.223,0.194,0.205,0.186
NCI-H358,0.112,0.107,0.0799,0.0885,0.0721,0.47,0.303,0.186,0.185,0.127,0.397,0.377,0.403,0.309,0.407,0.145,0.166,0.174,0.186,0.198
NCI-H1915,0.453,0.337,0.268,0.219,0.165,0.266,0.21,0.198,0.168,0.144,0.728,0.816,0.894,0.431,0.954,0.331,0.295,0.274,0.338,0.31
201T,0.985,0.835,0.795,0.798,0.653,0.841,0.782,0.747,0.678,0.642,1.01,1.06,1.12,1.03,1.15,0.587,0.533,0.504,0.531,0.413
NCI-H1437,0.266,0.289,0.239,0.204,0.175,0.601,0.518,0.446,0.422,0.443,1.14,1.08,1.22,1.25,1.24,0.411,0.416,0.3,0.455,0.479
